ChEMBL document CHEMBL1139128, “Structure-activity relationship analysis of a novel necroptosis inhibitor, Necrostatin-5” (Bioorg Med Chem Lett, 2007)
The source made the active and inactive calls. No rule for the calls is given here.

Tested on: Jurkat
Assay: Inhibition of TNF-alpha-induced necroptosis in FADD-deficient Jurkat T cells
Format: functional, cell-based
Parameters: concentration or dose not given beside the values
Conditions: for EC50: Jurkat

Row | Compound | Activity (Homo sapiens) | Activity | EC50 (Homo sapiens)
1 | CCc1c(C)sc2nc(SCCO)n(-c3ccc4c(c3)OCO4)c(=O)c12 | inactive | – | –
2 | N#CCSc1nc2sc3c(c2c(=O)n1-c1ccc(F)cc1)CCCCC3 | inactive | – | –
3 | CSc1nc2sc(C)c(C)c2c(=O)n1-c1ccc(OC(F)(F)F)cc1 | inactive | – | –
4 | N#CCSc1nc2sc3ccccc3c2c(=O)n1-c1ccc2c(c1)OCCO2 | – | 100% | 150 nM
5 | N#CCSc1nc2sc3c(c2c(=O)n1-c1ccc(OC(F)(F)F)cc1)CCCC3 | inactive | – | –
6 | COc1ccc(-n2c(S(C)(=O)=O)nc3sc4c(c3c2=O)CCCC4)cc1 | inactive | – | –
7 | CSc1nc2sc(C)c(C)c2c(=O)n1-c1ccc2c(c1)OCO2 | – | 67% | 1110 nM
8 | COc1ccc(-n2c(SC(C)=O)nc3sc4c(c3c2=O)CCCC4)cc1 | inactive | – | –
9 | CSc1nc2sc3c(c2c(=O)n1-c1ccc(F)cc1)CCC3 | – | 95% | 3000 nM
10 | Cc1ccccc1-n1c(SCC#N)nc2sc3c(c2c1=O)CCCC3 | inactive | – | –
11 | CSc1nc2sc3c(c2c(=O)n1-c1ccc(C)c(C)c1)CCCC3 | – | 38% | 16700 nM
12 | CCc1sc2nc(SCCO)n(-c3ccc(OC)cc3)c(=O)c2c1C | inactive | – | –
13 | CSc1nc2sc3ccccc3c2c(=O)n1-c1ccc(F)cc1 | – | – | 3060 nM
14 | CSc1nc2sc3c(c2c(=O)n1-c1ccc(F)cc1)CCCC3 | – | 61.2% | 1570 nM
15 | COc1ccc(-n2c(SC[N+](=O)[O-])nc3sc4c(c3c2=O)CCCC4)cc1 | inactive | – | –
16 | COc1ccc(-n2c(SCCC#N)nc3sc(C)c(C)c3c2=O)cc1 | inactive | – | –
17 | N#CCSc1nc2sc3c(c2c(=O)n1-c1ccc(OCc2ccccc2)cc1)CCCC3 | inactive | – | –
18 | COc1ccc(-n2c(SCC#N)nc3sccc3c2=O)cc1 | inactive | – | –
19 | C#CCSc1nc2sc3c(c2c(=O)n1-c1ccc(OC)cc1)CCCC3 | – | 80.7% | 6080 nM
20 | CCc1sc2nc(SCC#N)n(-c3ccc(OC)cc3)c(=O)c2c1C | – | 86.8% | 5260 nM
21 | N#CCSc1nc2sc3c(c2c(=O)n1-c1ccccc1)CCCCC3 | inactive | – | –
22 | CCCCCCSc1nc2sc3c(c2c(=O)n1-c1ccc(OC)cc1)CCCC3 | inactive | – | –
23 | CSc1nc2sc(C)c(C)c2c(=O)n1-c1ccc(C)c(C)c1 | inactive | – | –
24 | CSc1nc2sc3ccccc3c2c(=O)n1-c1ccc2c(c1)OCO2 | inactive | – | –
25 | CCOc1ccc(-n2c(SC)nc3sc(C)c(C)c3c2=O)cc1 | inactive | – | –

Row | Compound | Activity (Homo sapiens) | Activity | EC50 (Homo sapiens)
26 | COc1ccc(-n2c(SC)nc3sccc3c2=O)cc1 | inactive | – | –
27 | CSc1ccc(-n2c(SCC#N)nc3sc4c(c3c2=O)CCCC4)cc1 | – | 70% | 2330 nM
28 | COc1ccc(CSc2nc3sc4c(c3c(=O)n2-c2ccc(OC)cc2)CCCC4)cc1 | inactive | – | –
29 | CCCC(=O)Sc1nc2sc3c(c2c(=O)n1-c1ccc(OC)cc1)CCCC3 | inactive | – | –
30 | CSc1nc2sc3c(c2c(=O)n1-c1ccc2c(c1)OCO2)CCCC3 | inactive | – | –
31 | CCc1sc2nc(SC)n(-c3ccc(OC)cc3)c(=O)c2c1C | inactive | – | –
32 | C=CCSc1nc2sc3c(c2c(=O)n1-c1ccccc1)CCCC3 | inactive | – | –
33 | CCOc1ccc(-n2c(SCC#N)nc3sc4c(c3c2=O)CCCC4)cc1 | – | 83.8% | 550 nM
34 | CSc1nc2sccc2c(=O)n1-c1ccccc1 | inactive | – | –
35 | N#CCSc1nc2sc3c(c2c(=O)n1-c1ccc(Cl)c(Cl)c1)CCCC3 | – | 39% | 5700 nM
36 | CN(C)c1ccc(-n2c(SCC#N)nc3sc4ccccc4c3c2=O)cc1 | inactive | – | –
37 | C#CCSc1nc2sc(C)c(C)c2c(=O)n1-c1ccc2c(c1)OCO2 | inactive | – | –
38 | O=c1c2c3c(sc2nc(SCc2ccc([N+](=O)[O-])cc2)n1-c1ccccc1)CCCC3 | inactive | – | –
39 | CCOc1ccc(-n2c(SCC#N)nc3sc4ccccc4c3c2=O)cc1 | inactive | – | –
40 | COc1ccc(-n2c(SCC(C)O)nc3sc4c(c3c2=O)CCCC4)cc1 (stereo unspecified) | inactive | – | –
41 | C#CCSc1nc2sccc2c(=O)n1-c1ccc(OC)cc1 | inactive | – | –
42 | COc1ccc(-n2c(SCC#N)nc3sc4ccccc4c3c2=O)cc1 | – | 83.3% | 180 nM
43 | COc1ccc(-n2c(SCC(=O)O)nc3sc(C)c(C)c3c2=O)cc1 | inactive | – | –
44 | CSc1nc2sc3c(c2c(=O)n1-c1ccc(F)cc1)CCCCC3 | inactive | – | –
45 | COc1ccc(-n2c(SCCl)nc3sc4c(c3c2=O)CCCC4)cc1 | – | 85% | 2220 nM
46 | CCSc1nc2sc3c(c2c(=O)n1-c1ccc(OC)cc1)CCCC3 | inactive | – | –
47 | COc1ccc(-n2c(SC)nc3sc4c(c3c2=O)CCCC4)cc1OC | – | 54.5% | 16700 nM
48 | CSc1cccc(-n2c(SC)nc3sc4c(c3c2=O)CCCC4)c1 | inactive | – | –
49 | N#CCSc1nc2sc3c(c2c(=O)n1-c1ccccc1)CCCC3 | inactive | – | –
50 | Cc1sc2nc(SCC#N)n(-c3ccc(OCc4ccccc4)cc3)c(=O)c2c1C | inactive | – | –

Row | Compound | Activity (Homo sapiens) | Activity | EC50 (Homo sapiens)
51 | Cc1sc2nc(SCC#N)n(-c3ccc4c(c3)OCCO4)c(=O)c2c1C | – | 100% | 250 nM
52 | N#CCSc1nc2sc3c(c2c(=O)n1-c1ccc2c(c1)OCO2)CCC3 | – | 100% | 1180 nM
53 | C#CCSc1nc2sc(CC)c(C)c2c(=O)n1-c1ccc2c(c1)OCO2 | inactive | – | –
54 | CSc1nc2sc(C)c(C)c2c(=O)n1-c1ccc(OCc2ccccc2)cc1 | inactive | – | –
55 | COc1ccccc1-n1c(SCC#N)nc2sc3c(c2c1=O)CCCC3 | – | 51.2% | 17800 nM
56 | O=c1c2c3c(sc2nc(SCc2ccccc2)n1-c1ccccc1)CCCC3 | inactive | – | –
57 | COc1ccc(-n2c(SCc3ccc([N+](=O)[O-])cc3)nc3sc4c(c3c2=O)CCCC4)cc1 | inactive | – | –
58 | CCCSc1nc2sc3c(c2c(=O)n1-c1ccc(OC)cc1)CCC3 | inactive | – | –
59 | COc1ccc(-n2c(SCC(N)=O)nc3sc4c(c3c2=O)CCCC4)cc1 | inactive | – | –
60 | CSc1nc2sc(C)c(C)c2c(=O)n1-c1ccc(N(C)C)cc1 | inactive | – | –
61 | CCc1c(C)sc2nc(SCC#N)n(-c3ccc(OC)cc3)c(=O)c12 | – | 100% | 1080 nM
62 | CCN1CCc2sc3nc(SCC#N)n(-c4ccc(OC)cc4)c(=O)c3c2C1 | inactive | – | –
63 | CCOc1ccc(-n2c(SCC#N)nc3sc4c(c3c2=O)CCC4)cc1 | inactive | – | –
64 | C#CCSc1nc2sc(CCC)c(C)c2c(=O)n1-c1ccc(OC)cc1 | inactive | – | –
65 | C#CCSc1nc2scc(C)c2c(=O)n1-c1ccc(OC)cc1 | inactive | – | –
66 | COc1ccc(-n2c(SC)nc3sc4c(c3c2=O)CCCC4)cc1 | – | 71% | 240 nM
67 | COc1ccc(-n2c(SCC(=O)Nc3ccccc3C(F)(F)F)nc3sc4c(c3c2=O)CCCC4)cc1 | inactive | – | –
68 | CSc1nc2sc3c(c2c(=O)n1-c1ccc2c(c1)OCO2)CCC3 | inactive | – | –
69 | CCc1c(C)sc2nc(SC)n(-c3ccc4c(c3)OCO4)c(=O)c12 | inactive | – | –
70 | CCc1c(C)sc2nc(SC)n(-c3ccc(OC)cc3)c(=O)c12 | inactive | – | –
71 | COc1ccc(-n2c(SC)nc3scc(C)c3c2=O)cc1 | inactive | – | –
72 | COc1ccc(-n2c(SCC#N)nc3sc(C)c(C)c3c2=O)cc1 | – | 100% | 450 nM
73 | CCOc1ccc(-n2c(SCC#N)nc3sc(C)c(C)c3c2=O)cc1 | – | 97% | 7770 nM
74 | N#CCSc1nc2sc3c(c2c(=O)n1-c1ccc(OC(F)(F)F)cc1)CCC3 | – | 70% | 3700 nM
75 | COc1ccc(-n2c(SCc3ccc([N+](=O)[O-])cc3)nc3sc4c(c3c2=O)CCC4)cc1 | inactive | – | –

Row | Compound | Activity (Homo sapiens) | Activity | EC50 (Homo sapiens)
76 | CSc1nc2sc3ccccc3c2c(=O)n1-c1ccc(OC(F)(F)F)cc1 | inactive | – | –
77 | COc1ccc(-n2c([S+](C)[O-])nc3sc4c(c3c2=O)CCCC4)cc1 (stereo unspecified) | inactive | – | –
78 | COc1ccc(-n2c(SCC#N)nc3sc(C(C)C)c(C)c3c2=O)cc1 | inactive | – | –
79 | CCSc1nc2sc3c(c2c(=O)n1-c1ccc(OC)cc1)CCCCC3 | inactive | – | –
80 | CCCCCCCCCCCCCCc1sc2nc(SCC#N)n(-c3ccc(OC)cc3)c(=O)c2c1C | inactive | – | –
81 | CSc1nc2sc3c(c2c(=O)n1-c1ccc(Cl)cc1C)CCCC3 | inactive | – | –
82 | C#CCSc1nc2sc3c(c2c(=O)n1-c1ccc(OC)cc1)CCCCC3 | inactive | – | –
83 | COc1ccc(-n2c(SC)nc3sc4c(c3c2=O)CC(C)CC4)cc1OC (stereo unspecified) | inactive | – | –
84 | COc1ccc(-n2c(SC)nc3sc4c(c3c2=O)CC(C)CC4)cc1 (stereo unspecified) | inactive | – | –
85 | N#CCSc1nc2sc3c(c2c(=O)n1-c1ccc(F)cc1)CCC3 | – | 88.7% | 890 nM
86 | Cc1sc2nc(SCC#N)n(-c3ccc(OC(F)(F)F)cc3)c(=O)c2c1C | – | 63% | 3700 nM
87 | COc1ccc(-n2c(SC[N+](=O)[O-])nc3sc4c(c3c2=O)CCC4)cc1 | inactive | – | –
88 | CCCc1sc2nc(SCC#N)n(-c3ccc(OC)cc3)c(=O)c2c1C | inactive | – | –
89 | N#CCSc1nc2sc3c(c2c(=O)n1-c1ccc(Cl)cc1)CCCC3 | – | 55% | 8500 nM
90 | C#CCSc1nc2sc3c(c2c(=O)n1-c1ccc(OC)cc1)CCC3 | – | 63.4% | 2490 nM
91 | Cc1sc2nc(SCC#N)n(-c3ccc(N(C)C)cc3)c(=O)c2c1C | inactive | – | –
92 | Cc1cc(Cl)ccc1-n1c(SCC#N)nc2sc3c(c2c1=O)CCCC3 | inactive | – | –
93 | COc1ccc(-n2c(SCC#N)nc3sc4c(c3c2=O)CCCC4)cc1OC | – | 57% | 5700 nM
94 | CCc1c(C)sc2nc(SCC#N)n(-c3ccc4c(c3)OCO4)c(=O)c12 | – | 100% | 1900 nM
95 | Cc1ccc(-n2c(SCC#N)nc3sc4c(c3c2=O)CCCC4)cc1C | – | 45% | 16700 nM
96 | COc1ccc(-n2c(SCC(=O)O)nc3sc4c(c3c2=O)CCCC4)cc1 | inactive | – | –
97 | N#CCSc1nc2sc3ccccc3c2c(=O)n1-c1ccc(OC(F)(F)F)cc1 | inactive | – | –
98 | COc1ccc(-n2c(SCC#N)nc3sc4c(c3c2=O)CN(C(C)C)CC4)cc1 | inactive | – | –
